Assay results from ChEMBL document CHEMBL5154916, “Multiparameter Optimization of Naphthyridine Derivatives as Selective α5-GABAA Receptor Negative Allosteric Modulators” (J Med Chem, 2022).

Assays:
Cytochrome P450 2D6 = Cytochrome P450 2D6 (Homo sapiens, UniProt P10635); assay: Inhibition of CYP2D6 (unknown origin); type: ADME
[1] = biological target: GABA-A receptor; alpha-5/beta-3/gamma-2 (Homo sapiens) (UniProt P18507+P28472+P31644); assay: Negative allosteric modulation activity at human recombinant alpha5beta3gamma2 GABAA receptor stably expressed in HEK293 cells assessed as modulation at alpha5 subunit at 10 uM by Patch clamp method; type: cell-based; settings: filed as negative allosteric modulator
[2] = Ratio of drug level in brain to plasma in Wistar rat at 3 mg/kg, po measured at 1.5 hr post dose; type: ADME, organism-based; settings: brain and plasma, read-out: BPR
[3] = Bioavailability in Wistar rat total plasma at 1 mg/kg, iv by HPLC-MS/MS analysis; type: ADME, organism-based
Homo sapiens = species on record: Homo sapiens; assay: Selectivity ratio of Ki for human alpha1GABAA receptor to Ki for alpha2 GABAA receptor
[4] = Plasma protein binding in dog; type: ADME, cell-free, Canis lupus familiaris; settings: read-out: PPB (converted)
Cytochrome P450 2C9 = Cytochrome P450 2C9 (Homo sapiens, UniProt P11712); assay: Inhibition of CYP2C9 (unknown origin); type: ADME
Sequence of Cytochrome P450 2C9 (P11712 whole entry): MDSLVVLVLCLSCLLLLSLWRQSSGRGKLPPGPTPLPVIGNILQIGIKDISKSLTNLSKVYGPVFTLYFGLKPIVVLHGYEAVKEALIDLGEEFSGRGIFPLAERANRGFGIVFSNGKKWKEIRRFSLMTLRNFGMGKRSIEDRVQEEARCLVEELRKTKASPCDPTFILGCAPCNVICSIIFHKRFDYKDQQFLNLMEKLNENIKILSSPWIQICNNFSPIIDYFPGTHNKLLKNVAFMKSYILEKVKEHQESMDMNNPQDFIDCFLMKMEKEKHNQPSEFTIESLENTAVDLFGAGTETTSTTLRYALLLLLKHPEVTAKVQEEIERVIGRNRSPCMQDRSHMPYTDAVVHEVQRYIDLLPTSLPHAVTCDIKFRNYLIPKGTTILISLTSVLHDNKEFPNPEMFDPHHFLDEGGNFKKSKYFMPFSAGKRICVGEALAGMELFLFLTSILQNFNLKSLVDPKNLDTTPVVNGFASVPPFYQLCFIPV

Sequence of Cytochrome P450 2D6 (P10635 whole entry): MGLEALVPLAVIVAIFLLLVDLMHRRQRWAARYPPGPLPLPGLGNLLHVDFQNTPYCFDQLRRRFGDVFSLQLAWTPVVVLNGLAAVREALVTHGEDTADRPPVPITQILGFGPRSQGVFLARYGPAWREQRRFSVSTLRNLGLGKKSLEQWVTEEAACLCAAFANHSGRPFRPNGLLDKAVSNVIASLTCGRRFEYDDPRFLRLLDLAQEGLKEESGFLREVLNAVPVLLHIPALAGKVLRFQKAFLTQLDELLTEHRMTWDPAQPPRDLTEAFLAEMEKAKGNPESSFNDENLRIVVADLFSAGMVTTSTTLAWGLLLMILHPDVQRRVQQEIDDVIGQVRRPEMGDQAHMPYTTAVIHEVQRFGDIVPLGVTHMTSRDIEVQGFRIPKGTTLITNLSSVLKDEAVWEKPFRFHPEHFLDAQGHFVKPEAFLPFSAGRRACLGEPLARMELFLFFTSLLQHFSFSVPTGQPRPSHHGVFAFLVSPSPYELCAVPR

IC50 (Cytochrome P450 2D6): > 50 µM | Activity [1]: -39% | Kp at 1.5 h [2]: 6.3 | bioavailability [3]: 35.8% | Selectivity ratio (Homo sapiens): > 40 | fraction unbound [4]: 0.05 | IC50 (Cytochrome P450 2C9): > 50 µM
SMILES: Cc1onc(-c2ccc(F)cc2)c1COc1ccc2c(n1)CCN(C(=O)CS(C)(=O)=O)C2
